In US20080026996A1, “Selective Vpac2 Receptor Reptide Agonists” (ELI LILLY AND COMPANY, priority 2004, published 2008):
Like-named read-outs stand apart in the source and are kept apart here. Where no end group is shown, it is not given here. [ ]: non-standard residue; d: D form. hArg = N=C(N)NCCCC[C@H](N)C(=O)O

Key:
human PAC1 = target: T1, human PAC1 (Homo sapiens, UniProt P41586); assay: DiscoveRx cAMP in vitro potency, CHO-PO cells transiently transfected with human PAC1 receptor; type: cell-based; set-up: expressed in transfected cells; host or cells: CHO-PO, transient (Lipofectamine)
T1 sequence (P41586 21-468): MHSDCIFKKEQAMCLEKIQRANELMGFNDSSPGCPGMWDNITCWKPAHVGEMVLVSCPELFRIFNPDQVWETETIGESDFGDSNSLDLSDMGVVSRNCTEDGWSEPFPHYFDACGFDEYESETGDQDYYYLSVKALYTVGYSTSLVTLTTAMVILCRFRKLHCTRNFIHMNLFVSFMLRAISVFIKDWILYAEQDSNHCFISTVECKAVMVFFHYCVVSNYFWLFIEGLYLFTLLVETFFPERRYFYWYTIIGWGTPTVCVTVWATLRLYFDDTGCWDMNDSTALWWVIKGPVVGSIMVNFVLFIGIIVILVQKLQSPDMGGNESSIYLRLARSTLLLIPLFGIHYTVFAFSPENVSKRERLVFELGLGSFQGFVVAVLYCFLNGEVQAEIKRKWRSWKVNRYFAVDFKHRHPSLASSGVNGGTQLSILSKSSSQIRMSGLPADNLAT
Protocol: (§1) Also, the cells are washed twice. The cells are incubated in assay buffer plus IBMX for 15 minutes at room temperature. […] The stimuli are present for 30 minutes. Then, the assay buffer is gently removed. […] At day 3, the assay described above for the VPAC2 receptor cell line is performed.

human VPAC2 [1] = target: T2, human VPAC2 (Homo sapiens, UniProt P41587); assay: DiscoveRx cAMP in vitro potency, CHO-S cell line stably expressing human VPAC2 receptor; type: cell-based; details: cAMP generation; mean of two independent runs
T2 construct: expressed in transfected cells
T2 sequence (P41587 24-438): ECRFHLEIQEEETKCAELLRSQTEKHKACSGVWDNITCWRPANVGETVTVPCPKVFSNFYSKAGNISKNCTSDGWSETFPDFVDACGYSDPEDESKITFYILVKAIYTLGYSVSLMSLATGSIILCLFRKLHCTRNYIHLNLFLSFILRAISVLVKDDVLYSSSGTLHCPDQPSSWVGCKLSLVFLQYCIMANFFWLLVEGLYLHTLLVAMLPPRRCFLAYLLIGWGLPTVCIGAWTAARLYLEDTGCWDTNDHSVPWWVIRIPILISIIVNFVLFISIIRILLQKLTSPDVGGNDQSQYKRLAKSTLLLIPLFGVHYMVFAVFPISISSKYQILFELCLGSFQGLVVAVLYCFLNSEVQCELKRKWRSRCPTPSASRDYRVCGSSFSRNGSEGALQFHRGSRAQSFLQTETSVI
Protocol: as §1

human VPAC1 [2] = target: T3, human VPAC1 (Homo sapiens, UniProt P32241); assay: DiscoveRx cAMP in vitro potency, CHO-PO cells transiently transfected with human VPAC1 receptor; type: cell-based; set-up: expressed in transfected cells; host or cells: CHO-PO, transient (Lipofectamine)
T3 sequence (P32241 31-457): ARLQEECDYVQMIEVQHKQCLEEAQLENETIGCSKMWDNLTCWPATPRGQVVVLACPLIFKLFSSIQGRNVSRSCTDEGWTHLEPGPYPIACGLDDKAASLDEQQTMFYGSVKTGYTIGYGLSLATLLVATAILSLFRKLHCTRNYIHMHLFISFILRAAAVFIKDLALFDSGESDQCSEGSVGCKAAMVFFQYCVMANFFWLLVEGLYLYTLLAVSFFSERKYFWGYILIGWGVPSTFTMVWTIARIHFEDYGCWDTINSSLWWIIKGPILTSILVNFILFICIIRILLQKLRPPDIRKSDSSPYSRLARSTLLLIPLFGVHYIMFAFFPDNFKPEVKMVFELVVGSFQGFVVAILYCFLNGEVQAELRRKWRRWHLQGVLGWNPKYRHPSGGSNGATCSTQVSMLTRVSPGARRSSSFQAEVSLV
Protocol: as §1

human VPAC1 [3] = target: T3, human VPAC1; assay: Filter binding assay, membranes of cells transiently transfected with human VPAC1, 125I-labeled VIP tracer (Table 2); set-up: expressed in transfected cells; details: read-out: Human VPAC1 Receptor Binding
Outline: (§2)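 Scintillation counting of filter-retained radioligand gave the read-out. Compounds competed with the labelled tracer (about 40000 cpm) for 2.5 μg membranes during 1 hour of shaking in HEPES pH 7.4 buffer containing 0.5% BSA.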

human VPAC2 [4] = target: T2, human VPAC2; assay: Filter binding assay, membranes of stable VPAC2 cell line, 125I-labeled VIP tracer (Table 2); details: read-out: Human VPAC2 Receptor Binding
Outline: as §2

Normal Wistar rats = assay: Intravenous glucose tolerance test (IVGTT); type: in vivo, rat; details: IVGTT, insulin
Protocol: Intravenous glucose tolerance test (IVGTT): Normal Wistar rats are fasted overnight and are anesthetized prior to the experiment. A blood sampling catheter is inserted into the rats. The compound is given in the jugular vein. Blood samples are taken from the carotid artery. A blood sample is drawn immediately prior to the injection of glucose along with the compound. After the initial blood sample, glucose mixed with compound is injected intravenously (i.v.). A glucose challenge of 0.5 g/kg body weight is given, injecting a total of 1.5 mL vehicle with glucose and agonist per kg body weight. The peptide concentration vary to produce the desired dose in μg/kg. Blood samples are drawn at 2, 4, 6 and 10 minutes after giving glucose. The control group of animals receives the same vehicle along with glucose, but with no compound added. In some instances, a 30 minute post-glucose blood sample is drawn. Aprotinin is added to the blood sample (250 kIU/ml blood). The serum is then analyzed for glucose and insulin using standard methodologies.
The assay uses a formulated and calibrated peptide stock in PBS. Normally, this stock is a prediluted 100 μM stock. However, a more concentrated stock with approximately 1 mg agonist per mL is used. The specific concentration is always known. Variability in the maximal response is mostly due to variability in the vehicle dose.

DPP-IV = target: T4, DPP-IV (Sus scrofa, UniProt P22411); assay: DPP-IV HPLC assay: in vitro incubation with purified dipeptidyl-peptidase IV; type: in vitro ADME, Porcine
T4 construct: purchased Sigma
Protocol: Part 1: Formulation of Selective VPAC2 Receptor Peptide Agonists: […]
Approximately 2 mg of lyophilized peptide is weighed and dissolved in approximately 1.6 mL de-ionized water. […] After incubation at room temperature for 30 minutes, 1/10th of the original volume 10×PBS is added. The pH is adjusted to between pH 7.2 and 7.6. The peptide solution is filtered through a 0.22 μm Millex-GV syringe filter (Millipore, Bedford Mass., USA). The peptide concentration is determined through absorption at 280 nm. The peptide concentration is then adjusted to 100 μM. The peptides are frozen at −20° C. for further use.
Part 2: In Vitro Incubation of Selective VPAC2 Receptor Peptide Agonists with Purified Dipeptidyl-Peptidase IV (DPP-IV):
The stability of selective VPAC2 receptor peptide agonists against proteolysis by DPP-IV is determined using 100 μL of a 100 μM peptide solution in 1×PBS. A 10 μL solution is removed and quenched with 40 μL of 0.1% trifluoroacetic acid (TFA)/20% acetonitrile (ACN). This solution (20 μL) is analyzed by reversed-phase HPLC. The reversed-phase analysis consists of a Zorbax 300SB-C8 column (3.5 micron, 4.6×50 mm, Alltech Associates, Inc., Deerfield Ill., USA) running a 15-40% B gradient over 15 minutes at 60° C. where A-buffer is 0.1% (v/v) TFA in water and B-buffer is 0.085% (v/v) TFA in ACN. The peak area is integrated. This peak area serves as an internal control as 100% intact peptide.
A 10 μL aliquot of a 1.12 mU/μL solution of DPP-IV (Sigma, St. Louis, La., USA) is added to 90 μL of a 100 μM solution of peptide, resulting in a substrate concentration of 90 μM peptide. The reaction mixture is then stored at 37° C. At various time-points, 10 μL of solution is removed, quenched with 40 μL 0.1% TFA/20% ACN, and analyzed by reversed-phase HPLC as described above. The remaining full length peptide concentration (nM) at each timepoint, except time=0, is calculated using following formula: [formula]
For the time=0 timepoint, the concentration (nM) is calculated using the following formula: [formula]

[5] = cAMP generation, mean of two independent runs, read-out: Human PAC1 Receptor: DiscoveRx EC50
[6] = cAMP generation, mean of two independent runs, read-out: Human VPAC1 Receptor: DiscoveRx EC50

T4 sequence (P22411 whole entry): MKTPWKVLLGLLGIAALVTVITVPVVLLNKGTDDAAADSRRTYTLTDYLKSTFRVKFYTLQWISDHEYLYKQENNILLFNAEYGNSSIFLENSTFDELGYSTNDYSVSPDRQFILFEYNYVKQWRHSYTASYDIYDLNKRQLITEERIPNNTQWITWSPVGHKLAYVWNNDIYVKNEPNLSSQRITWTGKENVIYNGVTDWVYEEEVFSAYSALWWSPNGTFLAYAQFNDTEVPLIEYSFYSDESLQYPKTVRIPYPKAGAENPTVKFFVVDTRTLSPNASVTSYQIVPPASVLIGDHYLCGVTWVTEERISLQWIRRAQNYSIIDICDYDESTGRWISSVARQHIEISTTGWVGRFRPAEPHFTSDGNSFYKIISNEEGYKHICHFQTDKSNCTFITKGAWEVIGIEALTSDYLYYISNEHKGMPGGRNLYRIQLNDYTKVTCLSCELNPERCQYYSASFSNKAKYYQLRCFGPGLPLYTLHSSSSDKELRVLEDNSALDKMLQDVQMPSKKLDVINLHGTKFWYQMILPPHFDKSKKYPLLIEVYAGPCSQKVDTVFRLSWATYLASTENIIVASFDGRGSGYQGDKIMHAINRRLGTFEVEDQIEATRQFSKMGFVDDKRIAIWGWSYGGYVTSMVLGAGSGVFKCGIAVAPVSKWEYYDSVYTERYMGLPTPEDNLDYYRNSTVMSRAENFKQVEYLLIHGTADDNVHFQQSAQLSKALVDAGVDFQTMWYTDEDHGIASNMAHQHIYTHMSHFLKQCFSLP

Substance: H-HTDAVFTDNYTRLRKQVAAKKYLQSIKNKRYGGPSSGAPPPS [Agonist P45]
- EC50 (human PAC1; [5]): 315 nM
- EC50 (human VPAC2 [1]): 11.6 nM

Substance: HSDVVFTDNYTRLRKQVAAKKYLQSIKNKRYGGPSSGAPPPS [Agonist P53]
- EC50 (human PAC1): > 1000 nM
- EC50 (human VPAC1 [2]): 118 nM

Substance: HSDAVLTDNYTRLRKQVAAKKYLQSIKNKRYGGPSSGAPPPS [Agonist P64]
- EC50 (human VPAC1 [2]; [6]): 221 nM
- EC50 (human VPAC2 [1]): > 1000 nM

Substance: HSDAVFTDNYTRAAAKVAAKKYLQSIKNKRYGGPSSGAPPPS [Agonist P88]
- IC50 (human VPAC1 [3]): 979 nM
- IC50 (human VPAC2 [4]): 93.9 nM
- EC50 (human VPAC2 [1]): > 1000 nM

Substance: HSDAVFTDNYTRLRKQVAAKKYLQSIKNKIYGGPSSGAPPPS [Agonist P76]
- EC50 (human VPAC1 [2]; [6]): 0.8 nM

Substance: H-HSDAVFTDNYTRLRKQVAAKKYLQSI[hArg]NKRYGGPSSGAPPPS [Agonist P22]
- EC50 (human VPAC1 [2]; [6]): 0.9 nM
- IC50 (human VPAC1 [3]): 123 nM
- IC50 (human VPAC2 [4]): 0.87 nM

Substance: HSDIVFTDNYTRLRKQVAAKKYLQSIKNKRYGGPSSGAPPPS [Agonist P50]
- EC50 (human VPAC2 [1]): 19.3 nM

Substance: HSDAVFTDNYTRLRKQVAAKKYLQSIKNKRF [Agonist P34]
- EC50 (human VPAC1 [2]; [6]): 0.8 nM
- IC50 (human VPAC1 [3]): 79.2 nM
- IC50 (human VPAC2 [4]): 0.92 nM

Substance: H-HSDLVFTDNYTRLRKQVAAKKYLQSIKNKRYGGPSSGAPPPS [Agonist P55]
- EC50 (human PAC1; [5]): > 1000 nM
- EC50 (human VPAC1 [2]; [6]): 134 nM

Substance: HVDAVFTDNYTRLRKQVAAKKYLQSIKNKRYGGPSSGAPPPS [Agonist P44]
- % increase AUC: Dose = 0.1 μg/kg (Normal Wistar rats; 0.1 μg/kg): 19%
- % increase AUC: Dose = 10 μg/kg (Normal Wistar rats; 10 μg/kg): 194%
- EC50 (human VPAC2 [1]): 0.92 nM

Substance: H[dA]DAVFTDNYTRLRKQVAAKKYLQSIKNKRYGGPSSGAPPPS [VPAC2-P47]
- Concentration (nM) of Remaining Main Peak by RP-HPLC after Incubation of Peptide with Purified Porcine DPP-IV (DPP-IV; Time = 0 hours at 37° C.): 9.0 nM
- Concentration (nM) of Remaining Main Peak by RP-HPLC after Incubation of Peptide with Purified Porcine DPP-IV (DPP-IV; Time = 2 hours at 37° C.): 7.9 nM
- Concentration (nM) of Remaining Main Peak by RP-HPLC after Incubation of Peptide with Purified Porcine DPP-IV (DPP-IV; Time = 6 hours at 37° C.): 6.1 nM
- Concentration (nM) of Remaining Main Peak by RP-HPLC after Incubation of Peptide with Purified Porcine DPP-IV (DPP-IV; Time = 24 hours at 37° C.): 2.8 nM
